Columns and labels:
[1] = tested on: blackgrass; test: Test Example 5: herbicidal effect by foliage application, plastic box (Table 20, symbol J); format: in vivo, blackgrass (Alopecurus myosuroides); settings: foliage application, AAH 320 g/ha
How it was run: (§1)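 Plants sown in sterilized diluvial soil and grown 14 days in a greenhouse at 25° C to 30° C, then sprayed on the foliage with the compound's emulsion diluted in water to a predetermined herbicide amount. Injury to weeds and crops scored three weeks after application on a visual rating scale.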

[2] = tested on: rice flat sedge; test: Test Example 3: herbicidal effect by foliage application, Wagner pot (Table 18, symbol E); format: in vivo, rice flat sedge (Cyperus iria); settings: 320 g/ha
How it was run: (§2)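 Plants were sown in alluvial soil held under 0.1–0.5 cm standing water and grown 14 days in a greenhouse at 25–30 °C. An emulsifiable formulation, water-diluted to the set dose, was then sprayed onto the foliage, and effects were scored three weeks later using previously defined criteria.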

[3] = tested on: redroot pigweed; test: Test Example 5: herbicidal effect by foliage application, plastic box (Table 20, symbol N); format: in vivo, redroot pigweed (Amaranthus retroflexus); settings: foliage application, AAH 320 g/ha
How it was run: as §1

[4] = tested on: barnyard grass; test: Test Example 5: herbicidal effect by foliage application, plastic box (Table 20, symbol H); format: in vivo, barnyard grass (Echinochloa crus-galli); settings: foliage application, AAH 320 g/ha
How it was run: as §1

[5] = tested on: wild oat; test: Test Example 5: herbicidal effect by foliage application, plastic box (Table 20, symbol I); format: in vivo, wild oat (Avena fatua); settings: foliage application, AAH 320 g/ha
How it was run: as §1

[6] = tested on: lambsquarters; test: Test Example 5: herbicidal effect by foliage application, plastic box (Table 20, symbol O); format: in vivo, lambsquarters (Chenopodium album); settings: foliage application, AAH 320 g/ha
How it was run: as §1

[7] = tested on: Japanese bulrush; test: Test Example 1: herbicidal activity, application before weed generation under submerged conditions (Table 16, symbol B); format: in vivo, Japanese bulrush (Schoenoplectus juncoides); settings: 320 g/ha applied herbicide
How it was run: (§3)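 Emulsion formulation, water-diluted to set dose, was put onto the flooded surface (4 cm depth, alluvial soil) the same day weeds were sown and 2.5-leaf rice transplanted. After 3 weeks at 25-30 °C under glass, each species was rated 0 (≤5% kill) to 5 (≥90% kill).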

[8] = tested on: barnyard grass; test: Test Example 3: herbicidal effect by foliage application, Wagner pot (Table 18, symbol H); format: in vivo, barnyard grass (Echinochloa crus-galli); settings: 320 g/ha
How it was run: as §2

[9] = tested on: Italian ryegrass; test: Test Example 5: herbicidal effect by foliage application, plastic box (Table 20, symbol K); format: in vivo, Italian ryegrass (Lolium multiflorum); settings: foliage application, AAH 320 g/ha
How it was run: as §1

[10] = tested on: chickweed; test: Test Example 5: herbicidal effect by foliage application, plastic box (Table 20, symbol P); format: in vivo, common chickweed (Stellaria media); settings: foliage application, AAH 320 g/ha
How it was run: as §1

[11] = tested on: Chinese sprangletop; test: Test Example 3: herbicidal effect by foliage application, Wagner pot (Table 18, symbol D); format: in vivo, chinese sprangletop (Leptochloa chinensis); settings: 320 g/ha
How it was run: as §2

[12] = tested on: southern crabgrass; test: Test Example 5: herbicidal effect by foliage application, plastic box (Table 20, symbol F); format: in vivo, southern crabgrass (Digitaria ciliaris); settings: foliage application, AAH 320 g/ha
How it was run: as §1

[13] = tested on: oval-leafed pondweed; test: Test Example 1: herbicidal activity, application before weed generation under submerged conditions (Table 16, symbol C); format: in vivo, oval-leafed pondweed (Monochoria vaginalis); settings: 320 g/ha applied herbicide
How it was run: as §3

[14] = tested on: persian speedwell; test: Test Example 5: herbicidal effect by foliage application, plastic box (Table 20, symbol R); format: in vivo, Persian speedwell (Veronica persica); settings: foliage application, AAH 320 g/ha
How it was run: as §1

[15] = tested on: windgrass; test: Test Example 5: herbicidal effect by foliage application, plastic box (Table 20, symbol L); format: in vivo, windgrass (Apera spica-venti); settings: foliage application, AAH 320 g/ha
How it was run: as §1

[16] = tested on: velvetleaf; test: Test Example 5: herbicidal effect by foliage application, plastic box (Table 20, symbol M); format: in vivo, velvetleaf (Abutilon theophrasti); settings: foliage application, AAH 320 g/ha
How it was run: as §1

[17] = tested on: green foxtail; test: Test Example 5: herbicidal effect by foliage application, plastic box (Table 20, symbol G); format: in vivo, green foxtail (Setaria viridis); settings: foliage application, AAH 320 g/ha
How it was run: as §1

[18] = tested on: late watergrass; test: Test Example 1: herbicidal activity, application before weed generation under submerged conditions (Table 16, symbol A); format: in vivo, late watergrass (Echinochloa oryzicola); settings: 320 g/ha applied herbicide
How it was run: as §3

[19] = evaluated three weeks after application

Structure (SMILES): COc1cccc(OC)c1-c1sc2ccccc2c1-c1c(O)c(C)nn(C)c1=O [1-158]
- J: blackgrass, herbicidal effect ([1]; three weeks after application): 0 (Herbicidal rate of 5% or less (almost no effect))
- herbicidal effect on E (rice flat sedge), rating 0-5 [2]: 0 (Herbicidal rate of 5% or less (almost no effect))
- N: redroot pigweed, herbicidal effect ([3]; three weeks after application): 0 (Herbicidal rate of 5% or less (almost no effect))
- H: barnyard grass, herbicidal effect ([4]; three weeks after application): 0 (Herbicidal rate of 5% or less (almost no effect))
- I: wild oat, herbicidal effect ([5]; three weeks after application): 0 (Herbicidal rate of 5% or less (almost no effect))
- O: lambsquarters, herbicidal effect ([6]; three weeks after application): 0 (Herbicidal rate of 5% or less (almost no effect))
- Herbicidal effect on B: Japanese bulrush (grade 0-5) [7]: 2 (Herbicidal rate of 20% or more and less than 40%)
- herbicidal effect on H (barnyard grass), rating 0-5 [8]: 2 (Herbicidal rate of 20% or more and less than 40%)
- K: Italian ryegrass, herbicidal effect ([9]; three weeks after application): 0 (Herbicidal rate of 5% or less (almost no effect))
- P: chickweed, herbicidal effect ([10]; three weeks after application): 5 (Herbicidal rate of 90% or more (almost completely withered))
- herbicidal effect on D (Chinese sprangletop), rating 0-5 [11]: 0 (Herbicidal rate of 5% or less (almost no effect))
- F: southern crabgrass, herbicidal effect ([12]; three weeks after application): 0 (Herbicidal rate of 5% or less (almost no effect))
- Herbicidal effect on C: oval-leafed pondweed (grade 0-5) [13]: 0 (Herbicidal rate of 5% or less (almost no effect))
- R: persian speedwell, herbicidal effect ([14]; three weeks after application): 5 (Herbicidal rate of 90% or more (almost completely withered))
- L: windgrass, herbicidal effect ([15]; three weeks after application): 0 (Herbicidal rate of 5% or less (almost no effect))
- M: velvetleaf, herbicidal effect ([16]; three weeks after application): 0 (Herbicidal rate of 5% or less (almost no effect))
- G: green foxtail, herbicidal effect ([17]; three weeks after application): 0 (Herbicidal rate of 5% or less (almost no effect))
- Herbicidal effect on A: late watergrass (grade 0-5) [18]: 0 (Herbicidal rate of 5% or less (almost no effect))

Structure (SMILES): Cc1nn(C)c(=O)c(-c2c(-c3cccc(OC(C)C#N)c3)sc3ccc(F)cc23)c1O (stereo not drawn) [2-277]
- J: blackgrass, herbicidal effect (criteria 0-5) [1, 19]: 0 (Herbicidal rate of 5% or less (almost no effect))
- N: redroot pigweed, herbicidal effect (criteria 0-5) [3, 19]: 2 (Herbicidal rate of 20% or more and less than 40%)
- H: barnyard grass, herbicidal effect (criteria 0-5) [4, 19]: 0 (Herbicidal rate of 5% or less (almost no effect))
- I: wild oat, herbicidal effect (criteria 0-5) [5, 19]: 0 (Herbicidal rate of 5% or less (almost no effect))
- O: lambsquarters, herbicidal effect (criteria 0-5) [6, 19]: 0 (Herbicidal rate of 5% or less (almost no effect))
- Herbicidal effect on B: Japanese bulrush (grade 0-5) [7]: 0 (Herbicidal rate of 5% or less (almost no effect))
- K: Italian ryegrass, herbicidal effect (criteria 0-5) [9, 19]: 0 (Herbicidal rate of 5% or less (almost no effect))
- P: chickweed, herbicidal effect (criteria 0-5) [10, 19]: 5 (Herbicidal rate of 90% or more (almost completely withered))
- F: southern crabgrass, herbicidal effect (criteria 0-5) [12, 19]: 0 (Herbicidal rate of 5% or less (almost no effect))
- Herbicidal effect on C: oval-leafed pondweed (grade 0-5) [13]: 2 (Herbicidal rate of 20% or more and less than 40%)
- R: persian speedwell, herbicidal effect (criteria 0-5) [14, 19]: 2 (Herbicidal rate of 20% or more and less than 40%)
- L: windgrass, herbicidal effect (criteria 0-5) [15, 19]: 0 (Herbicidal rate of 5% or less (almost no effect))
- M: velvetleaf, herbicidal effect (criteria 0-5) [16, 19]: 0 (Herbicidal rate of 5% or less (almost no effect))
- G: green foxtail, herbicidal effect (criteria 0-5) [17, 19]: 0 (Herbicidal rate of 5% or less (almost no effect))
- Herbicidal effect on A: late watergrass (grade 0-5) [18]: 1 (Herbicidal rate of 5% or more and less than 20%)
